Data on four molecules can be found in patent US12252701B2, “Chimeric antigen receptor T cell therapy” (KITE PHARMA, INC., priority 2020, dated 2025).

One data set concerns the target JAK2 (Homo sapiens, UniProt O60674). The data set is described as follows: JAK kinase inhibition biochemical assay (Kinase-Glo Plus luminescence), JAK2. To be noted: 10 μM ATP. The protocol: (§1) JAK kinase inhibition in vitro biochemical assays were performed using Kinase-Glo Plus luminescence kinase assay kit (Promega). Kinase activity was measured by quantitating the amount of ATP remaining in solution following a kinase reaction. Luminescent signal from the assay was correlated with the amount of ATP present and was inversely correlated with the amount of kinase activity. Compounds were diluted in 10% DMSO and 5 μl of the dilution were added to a 50 μl reaction so that the final concentration of DMSO was 1% in all of the reactions. […] All enzymatic reactions were conducted at 30° C. for 45 minutes. […] After the enzymatic reaction, 50 μl of Kinase-Glo Plus Luminescence kinase assay solution (Promega) were added to each reaction and incubated in the plate for 15 minutes at room temperature. Luminescence signal was measured using a Bio-Tek Synergy 2 microplate reader. Kinase activity was performed in duplicate at each concentration and data were analyzed using Graphpad Prism. The difference between luminescence intensities in the absence of Kinase (Lut) and in the presence of Kinase (Luc) was defined as 100% activity (Lut−Luc). Using luminescence signal (Lu) in the presence of the compound, % activity was calculated as: % activity={Lut−Lu)/(Lut−Luc)}×100%, where Lu=the luminescence intensity in the presence of compound.
In general terms: Kinase-Glo measures the ATP left after a reaction by luminescence.

In the next data set the target is JAK1 (Homo sapiens, UniProt P23458). In words: JAK kinase inhibition biochemical assay (Kinase-Glo Plus luminescence), JAK1. The following applies: for IC50: 10 μM ATP. The protocol: JAK kinase inhibition in vitro biochemical assays were performed using Kinase-Glo Plus luminescence kinase assay kit (Promega). Kinase activity was measured by quantitating the amount of ATP remaining in solution following a kinase reaction. Luminescent signal from the assay was correlated with the amount of ATP present and was inversely correlated with the amount of kinase activity. Compounds were diluted in 10% DMSO and 5 μl of the dilution were added to a 50 μl reaction so that the final concentration of DMSO was 1% in all of the reactions. […] All enzymatic reactions were conducted at 30° C. for 45 minutes. The 50 μl reaction mixture contained 40 mM Tris, pH 7.4, 10 mM MgCl2, 0.1 mg/ml BSA, 1 mM DTT, 10 μM ATP, Kinase substrate and the enzyme. After the enzymatic reaction, 50 μl of Kinase-Glo Plus Luminescence kinase assay solution (Promega) were added to each reaction and incubated in the plate for 15 minutes at room temperature. Luminescence signal was measured using a Bio-Tek Synergy 2 microplate reader. Kinase activity was performed in duplicate at each concentration and data were analyzed using Graphpad Prism. The difference between luminescence intensities in the absence of Kinase (Lut) and in the presence of Kinase (Luc) was defined as 100% activity (Lut−Luc). Using luminescence signal (Lu) in the presence of the compound, % activity was calculated as: % activity={Lut−Lu)/(Lut−Luc)}×100%, where Lu=the luminescence intensity in the presence of compound.
JAK1, sequence (P23458 whole entry): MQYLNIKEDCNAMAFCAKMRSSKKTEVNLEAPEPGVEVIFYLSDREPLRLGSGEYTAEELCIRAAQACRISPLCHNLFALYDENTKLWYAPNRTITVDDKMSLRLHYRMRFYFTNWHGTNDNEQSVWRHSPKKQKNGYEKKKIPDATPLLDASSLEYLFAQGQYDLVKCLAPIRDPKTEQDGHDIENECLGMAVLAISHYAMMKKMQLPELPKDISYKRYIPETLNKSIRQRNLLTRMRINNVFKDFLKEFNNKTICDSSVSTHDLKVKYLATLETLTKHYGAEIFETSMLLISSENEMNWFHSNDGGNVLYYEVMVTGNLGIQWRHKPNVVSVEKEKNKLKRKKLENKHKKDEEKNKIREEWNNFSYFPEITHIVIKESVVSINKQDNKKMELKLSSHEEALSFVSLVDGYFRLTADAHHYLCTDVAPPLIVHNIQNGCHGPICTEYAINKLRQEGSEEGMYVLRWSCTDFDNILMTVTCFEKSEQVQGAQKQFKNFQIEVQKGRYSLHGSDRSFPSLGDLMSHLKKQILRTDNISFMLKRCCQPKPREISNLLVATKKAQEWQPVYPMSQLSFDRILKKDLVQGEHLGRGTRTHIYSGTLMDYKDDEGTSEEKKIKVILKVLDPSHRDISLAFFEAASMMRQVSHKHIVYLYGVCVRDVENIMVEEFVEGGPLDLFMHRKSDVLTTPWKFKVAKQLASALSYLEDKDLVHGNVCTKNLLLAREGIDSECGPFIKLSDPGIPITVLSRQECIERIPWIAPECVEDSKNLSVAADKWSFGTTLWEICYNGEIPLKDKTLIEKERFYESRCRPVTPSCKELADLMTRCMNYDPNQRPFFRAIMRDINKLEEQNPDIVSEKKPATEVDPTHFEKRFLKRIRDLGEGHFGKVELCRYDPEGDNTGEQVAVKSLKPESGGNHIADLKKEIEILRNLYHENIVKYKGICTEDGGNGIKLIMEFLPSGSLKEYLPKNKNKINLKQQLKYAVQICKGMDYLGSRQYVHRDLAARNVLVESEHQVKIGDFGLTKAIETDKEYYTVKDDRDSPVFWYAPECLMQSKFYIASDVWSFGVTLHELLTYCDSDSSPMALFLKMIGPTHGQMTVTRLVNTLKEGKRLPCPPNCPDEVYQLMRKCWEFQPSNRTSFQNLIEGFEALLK

The test system of data set [1] is NALM6.GFP.LUC.CD19 target cells.
Description: The percent cytotoxicity to NALM6.GFP.LUC.CD19 target cells was measured by luciferase detection at each round.
In one embodiment, a serial killing assay is a combination of cell killing and how long it takes for CAR T cells to get exhausted under repeated stimulation. In one embodiment, a serial killing assay is a surrogate measure for CAR T cell persistence in vivo.
The target in another data set is T1, JAK3 (Homo sapiens, UniProt P52333).
T1 sequence (P52333 1-1124): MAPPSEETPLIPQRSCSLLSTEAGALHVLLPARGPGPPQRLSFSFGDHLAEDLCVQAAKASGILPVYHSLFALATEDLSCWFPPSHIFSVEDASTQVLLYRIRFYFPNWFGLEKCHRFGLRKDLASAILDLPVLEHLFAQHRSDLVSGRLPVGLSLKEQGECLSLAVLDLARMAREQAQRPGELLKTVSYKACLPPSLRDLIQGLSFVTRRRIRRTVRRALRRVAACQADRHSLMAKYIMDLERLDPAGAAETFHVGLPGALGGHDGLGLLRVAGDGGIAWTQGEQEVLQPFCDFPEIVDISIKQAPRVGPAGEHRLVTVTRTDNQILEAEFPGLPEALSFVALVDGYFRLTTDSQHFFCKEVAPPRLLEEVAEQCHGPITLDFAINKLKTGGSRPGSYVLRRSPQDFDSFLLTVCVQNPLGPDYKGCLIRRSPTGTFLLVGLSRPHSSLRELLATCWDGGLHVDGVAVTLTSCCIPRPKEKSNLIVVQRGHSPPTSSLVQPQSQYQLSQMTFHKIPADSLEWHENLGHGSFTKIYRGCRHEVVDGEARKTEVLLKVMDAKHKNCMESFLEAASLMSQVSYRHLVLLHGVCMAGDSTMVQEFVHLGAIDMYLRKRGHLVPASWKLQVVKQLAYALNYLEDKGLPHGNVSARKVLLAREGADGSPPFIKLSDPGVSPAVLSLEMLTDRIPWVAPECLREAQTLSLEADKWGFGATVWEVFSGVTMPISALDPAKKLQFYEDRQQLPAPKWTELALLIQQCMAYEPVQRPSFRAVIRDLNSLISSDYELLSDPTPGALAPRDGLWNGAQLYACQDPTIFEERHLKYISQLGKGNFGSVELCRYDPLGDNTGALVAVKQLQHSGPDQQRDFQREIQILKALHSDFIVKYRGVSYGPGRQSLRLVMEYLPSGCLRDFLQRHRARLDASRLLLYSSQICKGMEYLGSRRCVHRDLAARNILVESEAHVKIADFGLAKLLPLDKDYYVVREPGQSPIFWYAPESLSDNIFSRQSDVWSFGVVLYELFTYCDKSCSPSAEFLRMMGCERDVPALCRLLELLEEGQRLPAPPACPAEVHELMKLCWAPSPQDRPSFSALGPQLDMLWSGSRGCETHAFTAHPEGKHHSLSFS
The data set is described as follows: JAK kinase inhibition biochemical assay (Kinase-Glo Plus luminescence), JAK3. The protocol:
as §1

The test system of the next data set is macrophage. The data set is described as follows: Macrophage polarization, M1/M2 phenotypic markers by flow cytometry. Format: cell-based. A general note: Flow cytometry measures light scatter and fluorescence of single cells or particles in a stream.

JAK2, sequence (O60674 whole entry): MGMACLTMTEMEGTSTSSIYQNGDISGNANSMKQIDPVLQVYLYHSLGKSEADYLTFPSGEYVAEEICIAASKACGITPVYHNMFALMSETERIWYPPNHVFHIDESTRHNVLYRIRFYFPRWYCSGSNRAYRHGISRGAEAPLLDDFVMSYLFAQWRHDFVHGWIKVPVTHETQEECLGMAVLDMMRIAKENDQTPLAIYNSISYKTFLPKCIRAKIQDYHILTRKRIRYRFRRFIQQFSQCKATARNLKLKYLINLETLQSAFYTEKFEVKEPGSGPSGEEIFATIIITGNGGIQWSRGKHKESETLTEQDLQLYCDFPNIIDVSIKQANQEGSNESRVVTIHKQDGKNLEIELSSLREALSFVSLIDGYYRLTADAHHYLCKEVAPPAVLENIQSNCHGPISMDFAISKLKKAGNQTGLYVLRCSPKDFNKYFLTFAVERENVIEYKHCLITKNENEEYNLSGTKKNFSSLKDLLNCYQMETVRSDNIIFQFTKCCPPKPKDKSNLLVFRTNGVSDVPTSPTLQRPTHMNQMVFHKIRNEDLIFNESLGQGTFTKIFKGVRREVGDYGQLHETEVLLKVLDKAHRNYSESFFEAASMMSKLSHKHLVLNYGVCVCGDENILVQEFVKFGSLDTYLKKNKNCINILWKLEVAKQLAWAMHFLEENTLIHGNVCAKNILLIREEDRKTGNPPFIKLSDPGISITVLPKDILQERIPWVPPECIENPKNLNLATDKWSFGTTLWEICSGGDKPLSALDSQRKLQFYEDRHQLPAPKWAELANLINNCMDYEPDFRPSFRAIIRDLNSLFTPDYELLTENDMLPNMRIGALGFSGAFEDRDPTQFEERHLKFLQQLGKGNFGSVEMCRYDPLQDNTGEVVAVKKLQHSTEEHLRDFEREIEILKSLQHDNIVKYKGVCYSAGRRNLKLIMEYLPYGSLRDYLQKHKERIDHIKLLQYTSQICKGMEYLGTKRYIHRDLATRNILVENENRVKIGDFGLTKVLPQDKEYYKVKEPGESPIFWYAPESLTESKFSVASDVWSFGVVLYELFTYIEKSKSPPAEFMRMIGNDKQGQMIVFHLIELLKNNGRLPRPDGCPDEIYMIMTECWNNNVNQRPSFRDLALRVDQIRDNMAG

What is called IC50 is the concentration that gives 50% inhibition. In the case of `Nc1nc2cccc(-c3ccc(CN4CCS(=O)(=O)CC4)cc3)n2n1` [GS-829845], the IC50 on JAK2 came to 2160 nM. Also, on JAK1, the “less potency than parent compound filgotinib” value was “about 10 fold” and the IC50 was found to be 448 nM.

`C[C@@H]1C[C@H]2[C@@H]3CCC4=CC(=O)C=C[C@]4(C)[C@@]3(F)[C@@H](O)C[C@]2(C)[C@@]1(O)C(=O)CO` [dexamethasone]: the “impact on CAR-T serial killing (percent cytotoxicity)” value in data set [1] is recorded as “differential impacts”.

Turning to `O=C(Nc1nc2cccc(-c3ccc(CN4CCS(=O)(=O)CC4)cc3)n2n1)C1CC1` [filgotinib], the “activity against JAK3” value at JAK3 (biochemical assay) is reported as “limited activity”. Besides, the macrophage polarization entry in the data set on macrophage is on record as “promotes polarization of macrophages from M2 to M1 macrophages”.

Take `N#CCC1(n2cc(-c3ncnc4[nH]ccc34)cn2)CN(C2CCN(C(=O)c3ccnc(C(F)(F)F)c3F)CC2)C1` [itacitinib]: the IC50 on JAK2 stood at 69 nM; at JAK1 it was 13 nM; on JAK3 (10 μM ATP), 921 nM.
